Among the data in patent US11111245B2, “Derivatives of N-cycloalkyl/heterocycloalkyl-4-(imidazo[1,2-a]pyridine)pyrimidin-2-amine as therapeutic agents” (Aucentra Therapeutics Pty Ltd, priority 2017, dated 2021) are remaining activity, Ki and GI50 values, retold here.

The target in test [1] is CDK4/D1 (Homo sapiens, UniProt P11802). Put plainly: ADP Glo Kinase assay CDK4/D1. The class given is biochemical. The following applies: CDK4D1; for remaining activity at 10 µM: compound at 10 μM, read-out: residual activity (%) at 10 μM CDK4D1; for Ki: read-out: CDK inhibition, Ki (μM) CDK4D1. An outline of the steps: (§1)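 Compounds tested at 10 concentrations (10 μM to 0.5 nM, 1:3 steps) against CDK4/D1 or CDK6/D3, RB-CTF substrate, Tris pH 7.5 buffer with MgCl2, DTT and BSA.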
A general note: ADP-Glo first removes unused ATP, then detects ADP through luciferase.

Test [2] has as its target CDK6/D3 (Homo sapiens, UniProt Q00534). Put plainly: ADP Glo Kinase assay CDK6/D3. Format: biochemical. The conditions noted are these: CDK6D3; for remaining activity at 10 µM: compound at 10 μM, read-out: residual activity (%) at 10 μM CDK6D3. The method in brief:
as §1

The target in test [3] is CDK9/T1 (Homo sapiens, UniProt P50750). Put plainly: ADP Glo Kinase assay CDK9/T1. The class given is biochemical. The following applies: CDK9T1; read-out: CDK inhibition, Ki (μM) CDK9T1. The method in brief: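 ADP Glo luminescence, in-house: CDK4/D1, CDK6/D3 on RB-CTF substrate (Tris pH 7.5, MgCl2, DTT, BSA); CDK9/T1 on RBER-IRStide. Reaction 40 min, 37° C after ATP addition. 10-point 1:3 series, 10 μM to 0.5 nM. IC50 by 4-parameter logistic; Ki derived using ATP Km.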

Test [4] addresses T1, CDKs and other kinases (Homo sapiens, UniProt P06493).
T1 construct: other: CDK1B; residual activity (%) at 10 μM CDK1B; compound at 10 μM
Put plainly: Radiometric kinase assay (Eurofins Pharma Discovery or Reaction Biology Corporation Kinase Profiler). The class given is biochemical. The conditions noted are these: CDK1B; for remaining activity at 10 µM: compound at 10 μM, read-out: residual activity (%) at 10 μM CDK1B; for Ki: read-out: CDK inhibition, Ki (μM) CDK1B. An outline of the steps: (§2)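 Other CDKs and further kinases were profiled externally by radiometric assay. In-house ADP Glo assays covered CDK4/D1 and CDK6/D3 (RB-CTF substrate, pH 7.5 Tris buffer with MgCl2, DTT, BSA) and CDK9/T1 (RBER-IRStide substrate), 40 min at 37° C.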

Test [5] has as its target T2, CDKs and other kinases (Homo sapiens, UniProt P24941).
T2 construct: other: CDK2A; residual activity (%) at 10 μM CDK2A; compound at 10 μM
The test is described as above. Format: biochemical. The conditions noted are these: CDK2A; for remaining activity at 10 µM: compound at 10 μM, read-out: residual activity (%) at 10 μM CDK2A; for Ki: read-out: CDK inhibition, Ki (μM) CDK2A. The method in brief:
as §2

Test [6] addresses T3, CDKs and other kinases (Homo sapiens, UniProt P50613).
T3 construct: other: CDK7H; residual activity (%) at 10 μM CDK7H; compound at 10 μM
Described as above. The class given is biochemical. The following applies: CDK7H; for remaining activity at 10 µM: compound at 10 μM, read-out: residual activity (%) at 10 μM CDK7H; for Ki: read-out: CDK inhibition, Ki (μM) CDK7H. The method in brief: as §2

For test [7], the system named is leukemia cell lines. Put plainly: Resazurin cell viability assay on leukemia cell lines (72 h growth inhibition, GI50). The class given is cell-based. The conditions noted are these: Homo sapiens, MV4-11 cells. The method in brief:
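GI50 values from non-linear regression of growth inhibition; read-out was MTT for solid tumour cells, resazurin for leukaemia cells.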
Background: The colour change of resazurin is a common sign of viable cells or microbes.

Chain of CDK4/D1 (P11802 whole entry): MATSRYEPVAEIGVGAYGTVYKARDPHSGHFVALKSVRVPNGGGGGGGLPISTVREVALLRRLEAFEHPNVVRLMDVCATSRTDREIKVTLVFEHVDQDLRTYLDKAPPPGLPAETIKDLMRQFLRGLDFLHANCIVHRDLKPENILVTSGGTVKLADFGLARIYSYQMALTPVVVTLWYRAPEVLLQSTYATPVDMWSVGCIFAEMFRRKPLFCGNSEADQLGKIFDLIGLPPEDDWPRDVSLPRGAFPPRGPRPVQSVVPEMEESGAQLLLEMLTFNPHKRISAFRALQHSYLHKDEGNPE
Chain of CDK4/D1 (P24385 whole entry partner): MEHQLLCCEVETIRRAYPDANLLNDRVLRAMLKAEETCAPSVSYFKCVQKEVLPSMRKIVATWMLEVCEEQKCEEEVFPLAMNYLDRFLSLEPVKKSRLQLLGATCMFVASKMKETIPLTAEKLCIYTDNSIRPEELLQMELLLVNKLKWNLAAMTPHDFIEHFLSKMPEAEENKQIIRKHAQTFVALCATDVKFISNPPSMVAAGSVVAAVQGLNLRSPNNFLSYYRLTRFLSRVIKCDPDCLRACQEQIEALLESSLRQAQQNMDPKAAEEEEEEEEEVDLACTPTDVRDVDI
Chain of CDK9/T1 (P50750 whole entry): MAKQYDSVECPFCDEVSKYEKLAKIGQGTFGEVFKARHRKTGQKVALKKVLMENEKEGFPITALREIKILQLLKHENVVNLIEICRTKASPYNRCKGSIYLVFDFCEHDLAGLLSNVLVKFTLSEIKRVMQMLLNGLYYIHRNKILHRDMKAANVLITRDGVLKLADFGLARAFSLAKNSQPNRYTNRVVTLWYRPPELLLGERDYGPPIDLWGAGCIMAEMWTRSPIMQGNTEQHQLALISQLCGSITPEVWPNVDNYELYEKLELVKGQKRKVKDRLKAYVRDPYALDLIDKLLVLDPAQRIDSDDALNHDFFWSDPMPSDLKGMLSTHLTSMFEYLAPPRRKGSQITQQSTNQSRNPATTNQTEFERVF
Chain of CDK9/T1 (O60563 whole entry partner): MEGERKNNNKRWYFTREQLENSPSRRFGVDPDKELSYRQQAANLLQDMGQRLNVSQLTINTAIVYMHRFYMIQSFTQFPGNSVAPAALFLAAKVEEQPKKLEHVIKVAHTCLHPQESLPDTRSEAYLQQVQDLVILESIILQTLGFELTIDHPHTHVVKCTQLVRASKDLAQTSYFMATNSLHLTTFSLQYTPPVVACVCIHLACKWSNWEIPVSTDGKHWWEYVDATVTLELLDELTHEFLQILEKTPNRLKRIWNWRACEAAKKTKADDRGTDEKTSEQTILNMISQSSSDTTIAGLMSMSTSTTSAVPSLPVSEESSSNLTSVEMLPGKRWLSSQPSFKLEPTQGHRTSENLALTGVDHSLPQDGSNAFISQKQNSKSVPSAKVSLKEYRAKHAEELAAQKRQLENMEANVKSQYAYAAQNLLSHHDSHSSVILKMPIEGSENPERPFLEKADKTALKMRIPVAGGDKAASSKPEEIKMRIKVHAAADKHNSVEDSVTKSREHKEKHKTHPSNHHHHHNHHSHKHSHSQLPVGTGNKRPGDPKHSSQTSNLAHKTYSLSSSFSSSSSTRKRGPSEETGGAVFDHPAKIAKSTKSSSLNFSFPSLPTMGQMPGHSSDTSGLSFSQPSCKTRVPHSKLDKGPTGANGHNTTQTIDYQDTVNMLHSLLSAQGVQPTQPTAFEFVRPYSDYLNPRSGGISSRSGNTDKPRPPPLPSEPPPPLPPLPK
T1 sequence (P06493 whole entry): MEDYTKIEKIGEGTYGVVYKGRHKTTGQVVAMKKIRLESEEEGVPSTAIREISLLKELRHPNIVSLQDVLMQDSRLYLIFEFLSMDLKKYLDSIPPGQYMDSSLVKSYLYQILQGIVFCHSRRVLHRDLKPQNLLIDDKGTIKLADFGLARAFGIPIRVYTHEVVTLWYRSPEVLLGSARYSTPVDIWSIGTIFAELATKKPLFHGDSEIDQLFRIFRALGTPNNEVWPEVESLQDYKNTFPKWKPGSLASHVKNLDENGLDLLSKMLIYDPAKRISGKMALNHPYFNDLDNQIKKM
Chain of CDK6/D3 (Q00534 whole entry): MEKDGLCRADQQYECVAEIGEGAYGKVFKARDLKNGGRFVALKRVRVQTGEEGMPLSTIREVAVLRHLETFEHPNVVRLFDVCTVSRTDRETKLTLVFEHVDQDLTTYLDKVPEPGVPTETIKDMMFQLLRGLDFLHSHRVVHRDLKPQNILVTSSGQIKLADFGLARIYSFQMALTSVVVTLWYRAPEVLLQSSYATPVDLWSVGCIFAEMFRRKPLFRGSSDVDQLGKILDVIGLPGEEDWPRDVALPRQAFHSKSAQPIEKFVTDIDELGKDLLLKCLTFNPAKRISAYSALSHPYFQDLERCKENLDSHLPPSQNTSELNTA
Chain of CDK6/D3 (P30281 whole entry partner): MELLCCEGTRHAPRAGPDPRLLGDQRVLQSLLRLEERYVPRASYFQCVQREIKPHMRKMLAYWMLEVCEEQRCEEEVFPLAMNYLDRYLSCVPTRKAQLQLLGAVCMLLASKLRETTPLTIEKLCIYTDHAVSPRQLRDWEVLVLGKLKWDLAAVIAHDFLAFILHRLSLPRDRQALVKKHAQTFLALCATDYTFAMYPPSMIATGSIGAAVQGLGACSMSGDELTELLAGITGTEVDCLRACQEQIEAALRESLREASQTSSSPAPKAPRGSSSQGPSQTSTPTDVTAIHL
T3 sequence (P50613 whole entry): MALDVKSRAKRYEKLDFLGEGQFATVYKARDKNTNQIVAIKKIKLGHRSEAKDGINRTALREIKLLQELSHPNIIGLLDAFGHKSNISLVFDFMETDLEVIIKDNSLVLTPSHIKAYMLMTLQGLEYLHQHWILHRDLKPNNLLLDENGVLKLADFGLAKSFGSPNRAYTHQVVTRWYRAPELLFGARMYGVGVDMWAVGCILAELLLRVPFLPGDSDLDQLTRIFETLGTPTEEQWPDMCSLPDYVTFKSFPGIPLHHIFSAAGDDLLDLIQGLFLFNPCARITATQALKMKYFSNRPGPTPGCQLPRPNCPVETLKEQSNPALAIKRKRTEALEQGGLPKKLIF

On to `Cc1cnc(N[C@]23C[C@@]4(C)C[C@](C)(C[C@](O)(C4)C2)C3)nc1-c1cnc2ccc(Nc3cncnc3)cn12` [Compound 102, (1s,3R,5S,7r)-3,5-Dimethyl-7-((5-methyl-4-(6-(pyrimidin-5-ylamino)imidazo[1,2-a]pyridin-3-yl)pyrimidin-2-yl)amino)adamantan-1-ol], for which the remaining activity at 10 µM in test [1] is 73%; in test [2], 100%; in test [4], 36%; in test [5] it was 22%; in test [6], 85%. Moreover, the Ki (as a rule, the dissociation constant of the complex between target and ligand, obtained from inhibition or displacement) in test [3] is 0.109 µM. For the same molecule, in test [7], it took 0.059 ± 0.019 µM to inhibit growth by half (GI50).
On to `Cc1cnc(NC2CCOCC2)nc1-c1cnc2ccc(Nc3cccnc3)cn12` [Compound 103, 3-(5-Methyl-2-((tetrahydro-2H-pyran-4-yl)amino)pyrimidin-4-yl)-N-(pyridin-3-yl)imidazo[1,2-a]pyridin-6-amine], for which the remaining activity at 10 µM came to 30% in test [1]; 45% in test [2]; 4% in test [4]; 1% in test [5]; 40% in test [6]. Moreover, the Ki in test [3] amounted to 0.203 µM. In addition, the GI50 (as a rule, the concentration at which growth is held to half of that of the control) in test [7] was > 10 µM.
As to `Cc1cnc(NC2CCOCC2)nc1-c1cnc2ccc(Nc3cncnc3)cn12` [Compound 104, 3-(5-Methyl-2-((tetrahydro-2H-pyran-4-yl)amino)pyrimidin-4-yl)-N-(pyrimidin-5-yl)imidazo[1,2-a]pyridin-6-amine], the remaining activity at 10 µM in test [1] amounted to 70%; in test [2], 73%; in test [4], 4%; in test [5], 2%; in test [6], 57%. The Ki in test [3] was 0.155 µM. Growth in test [7] was halved (GI50) at 4.76 ± 1.16 µM.
As for `Cc1cnc(N[C@H]2CC[C@H](O)CC2)nc1-c1cnc2ccc(-c3ccccc3)cn12` [Compound 105, (1r,4r)-4-((5-Methyl-4-(6-phenylimidazo[1,2-a]pyridin-3-yl)pyrimidin-2-yl)amino)cyclohexan-1-ol], the remaining activity at 10 µM in test [1] amounted to 93%; in test [2], 94%; in test [4], 7%; in test [5], 3%; in test [6], 15%. Besides, the Ki in test [3] came to 0.188 µM. In test [7], this molecule gave a GI50 of 0.748 ± 0.063 µM.
As to `Cc1cnc(N[C@H]2CC[C@H](O)CC2)nc1-c1cnc2ccc(Nc3cccnc3)cn12` [Compound 106, (1r,4r)-4-((5-Methyl-4-(6-(pyridin-3-ylamino)imidazo [1,2-a]pyridin-3-yl)pyrimidin-2-yl)amino)cyclohexan-1-ol], the remaining activity at 10 µM in test [1] amounted to 43%; in test [2], 71%; in test [4], 5%; in test [5], 2%; in test [6], 25%. Further, the Ki in test [3] stood at 0.042 µM. The GI50 in test [7] was found to be 0.851 ± 0.048 µM.
Turning to `Cc1cnc(N[C@H]2CC[C@H](O)CC2)nc1-c1cnc2ccccn12` [Compound 107, (1r,4r)-4-((4-(Imidazo[1,2-a]pyridin-3-yl)-5-methylpyrimidin-2-yl)amino)cyclohexan-1-ol], the remaining activity at 10 µM in test [1] worked out at 37%; in test [2] it was 54%; in test [4], 47%; in test [5], 5%; in test [6] it was 34%. In test [3], the Ki came to 0.161 µM. For the same molecule, in test [7], the GI50 worked out at 1.42 ± 0.652 µM.
In the case of `Cc1cnc(N[C@H]2CC[C@H](O)CC2)nc1-c1cnc2ccc(Nc3cncnc3)cn12` [Compound 108, (1r,4r)-4-((5-Methyl-4-(6-(pyrimidin-5-ylamino)imidazo [1,2-a]pyridin-3-yl)pyrimidin-2-yl)amino)cyclohexan-1-ol], the remaining activity at 10 µM in test [1] is 70%; in test [2], 68%. Further, the Ki in test [3] came to 0.018 µM; in test [4] it was 0.16 µM; in test [5], 0.035 µM; in test [6], 4.76 µM. Also, in test [7], the GI50 was > 10 µM.
In the case of `Cc1cnc(NC2CCC(NCC(F)(F)F)CC2)nc1-c1cnc2ccc(Nc3cncnc3)cn12` (stereo not drawn) [Compound 112, N^1-(5-Methyl-4-(6-(pyrimidin-5-ylamino)imidazo[1,2-a]pyridin-3-yl)pyrimidin-2-yl)-N^4-(2,2,2-trifluoroethyl) cyclohexane-1,4-diamine], the Ki is > 5 µM in test [1]; 0.205 µM in test [3]; 1.73 µM in test [4]; 0.49 µM in test [5]; > 5 µM in test [6]. The remaining activity at 10 µM in test [2] is 45%. The molecule also displayed a GI50 in test [7] of 2.55 ± 1.7 µM.
As to `CC(=O)NC1CCC(Nc2ncc(C)c(-c3cnc4ccc(Nc5cncnc5)cn34)n2)CC1` (stereo not drawn) [Compound 113, N-(4-((5-Methyl-4-(6-(pyrimidin-5-ylamino)imidazo [1,2-a]pyridin-3-yl)pyrimidin-2-yl)amino)cyclohexyl) acetamide], the values for the remaining activity at 10 µM in test [1] and in test [2] were 28% and 39%, respectively. Moreover, the Ki in test [3] turned out to be 1.01 µM; in test [4] it was 0.82 µM; in test [5], 0.45 µM; in test [6] it was 2.59 µM. Moreover, in test [7], the GI50 was > 10 µM.
Turning to `Cc1cnc(N[C@H]2CC[C@H](N)CC2)nc1-c1cnc2cc(C(F)(F)F)c(Br)cn12` [Compound 114, (1r,4r)-N^1-(4-(6-Bromo-7-(trifluoromethyl)imidazo [1,2-a]pyridin-3-yl)-5-methylpyrimidin-2-yl) cyclohexane-1,4-diamine], the remaining activity at 10 µM was determined as 8% in test [1], 40% in test [2], 53% in test [4] and 28% in test [5]. Moreover, the Ki is 0.005 µM in test [3] and 0.075 µM in test [6]. Also, the GI50 in test [7] came out at 0.026 ± 0.009 µM.
Regarding `Cc1cnc(N[C@H]2CC[C@H](N)CC2)nc1-c1cnc2ccc(Nc3cncnc3)cn12` [Compound 115, (1r,4r)-N^1-(5-Methyl-4-(6-(pyrimidin-5-ylamino)imidazo [1,2-a]pyridin-3-yl)pyrimidin-2-yl)cyclohexane-1,4-diamine], the Ki in test [1] is 1.24 µM; in test [2] (read-out: CDK inhibition, Ki (μM) CDK6D3) it was 1.11 µM; in test [3], 0.006 µM; in test [4], 1.35 µM; in test [5], 0.14 µM; in test [6] it was 4 µM. In test [7], this molecule showed a GI50 of 0.552 ± 0.166 µM.
Turning to `N[C@H]1CC[C@H](Nc2ncc(F)c(-c3cnc4ccc(-c5ccc(C(=O)N6CCNCC6)cc5)cn34)n2)CC1` [Compound 117, (4-(3-(2-(((1r,4r)-4-Aminocyclohexyl)amino)-5-fluoropyrimidin-4-yl)imidazo[1,2-a]pyridin-6-yl)phenyl) (piperazin-1-yl)methanone], the remaining activity at 10 µM came out at 0% in test [1]; 12% in test [2]; 10% in test [4]; 4% in test [5]; 5% in test [6]. For the same molecule, the Ki in test [3] is 0.004 µM. In addition, in test [7], the GI50 came out at 0.045 ± 0.004 µM.
